Source: PubChem BioAssay (NCI)
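Briefly, cells in 96-well plates were exposed to five compound concentrations for 48 h, and endpoints were estimated by linear interpolation. GI50 is the concentration that inhibits growth by half. TGI: concentration producing complete growth inhibition.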

Columns and labels:
Assay in all cases: growth of human tumour cells (NCI), 48 h
[1] = system: 786-0 renal
[2] = system: A498 renal
[3] = system: A549 NSCLC
[4] = system: ACHN renal
[5] = system: BT-549 breast
[6] = system: CAKI-1 renal
[7] = system: CCRF-CEM leukemia
[8] = system: COLO 205 colon
[9] = system: DU-145 prostate
[10] = system: EKVX NSCLC
[11] = system: HCC-2998 colon
[12] = system: HCT-116 colon
[13] = system: HCT-15 colon
[14] = system: HL-60(TB) leukemia
[15] = system: HOP-62 NSCLC
[16] = system: HOP-92 NSCLC
[17] = system: HS 578T breast
[18] = system: HT29 colon
[19] = system: IGROV1 ovarian
[20] = system: K-562 leukemia
[21] = system: KM12 colon
[22] = system: LOX IMVI melanoma
[23] = system: MALME-3M melanoma
[24] = system: MCF7 breast
[25] = system: MDA-MB-231 breast
[26] = system: MDA-MB-435
[27] = system: MOLT-4 leukemia
[28] = system: NCI-H226 lung
[29] = system: NCI-H23 lung
[30] = system: NCI-H460 lung
[31] = system: NCI-H522 lung
[32] = system: NCI/ADR-RES ovarian
[33] = system: OVCAR-3 ovarian
[34] = system: OVCAR-4 ovarian
[35] = system: OVCAR-5 ovarian
[36] = system: OVCAR-8 ovarian
[37] = system: PC-3 prostate
[38] = system: RPMI-8226 leukemia
[39] = system: RXF 393 renal
[40] = system: SF-268 CNS
[41] = system: SF-295 CNS
[42] = system: SF-539 CNS
[43] = system: SK-MEL-2 melanoma
[44] = system: SK-MEL-28 melanoma
[45] = system: SK-MEL-5 melanoma
[46] = system: SK-OV-3 ovarian
[47] = system: SN12C renal
[48] = system: SNB-19 CNS
[49] = system: SNB-75 CNS
[50] = system: SR leukemia
[51] = system: SW-620 colon
[52] = system: T-47D breast
[53] = system: TK-10 renal
[54] = system: U251 CNS
[55] = system: UACC-257 melanoma
[56] = system: UACC-62 melanoma
[57] = system: UO-31 renal

## CC(C)(C)OC(=O)N1CCc2c(sc3ncnc(N/N=C/c4cccc5ccccc45)c23)C1
[1]
  GI50: 4.83 µM
  TGI: > 100 µM
[2]
  GI50: 2.3 µM
  TGI: 9.79 µM
[3]
  GI50: 3.64 µM
  TGI: > 100 µM
[4]
  GI50: 3.24 µM
  TGI: 78.5 µM
[5]
  GI50: 8.45 µM
  TGI: 72.9 µM
[6]
  GI50: 3.35 µM
  TGI: > 100 µM
[7]
  GI50: 3.6 µM
  TGI: > 100 µM
[8]
  GI50: 2.79 µM
  TGI: 40.8 µM
[9]
  GI50: 5.51 µM
  TGI: > 100 µM
[10]
  GI50: 3.64 µM
  TGI: > 100 µM
[11]
  GI50: 12.9 µM
  TGI: > 100 µM
[12]
  GI50: 3.22 µM
  TGI: 30.4 µM
[13]
  GI50: 3.86 µM
  TGI: > 100 µM
[14]
  GI50: 2.81 µM
  TGI: 13.4 µM
[15]
  GI50: 3.79 µM
  TGI: > 100 µM
[16]
  GI50: 2.78 µM
  TGI: 92.3 µM
[17]
  GI50: 2.4 µM
  TGI: > 100 µM
[18]
  GI50: 4.07 µM
  TGI: > 100 µM
[19]
  GI50: 3.94 µM
  TGI: > 100 µM
[20]
  GI50: 2.88 µM
  TGI: 62.4 µM
[21]
  GI50: 4.3 µM
  TGI: 76.9 µM
[22]
  GI50: 3.84 µM
  TGI: 25.5 µM
[23]
  GI50: 3.97 µM
  TGI: 36.3 µM
[24]
  GI50: 3.14 µM
  TGI: > 100 µM
[25]
  GI50: 5.93 µM
  TGI: > 100 µM
[26]
  GI50: 2.47 µM
  TGI: 7.31 µM
[27]
  GI50: 3.25 µM
  TGI: 16.9 µM
[28]
  GI50: 5.29 µM
  TGI: 34.7 µM
[29]
  GI50: 5.25 µM
  TGI: > 100 µM
[30]
  GI50: 3.29 µM
  TGI: 12.7 µM
[31]
  GI50: 2.26 µM
  TGI: 7.21 µM
[32]
  GI50: 3.74 µM
  TGI: 43.8 µM
[33]
  GI50: 3.95 µM
  TGI: 77.7 µM
[34]
  GI50: 3.79 µM
  TGI: 80.6 µM
[35]
  GI50: 4.71 µM
  TGI: > 100 µM
[36]
  GI50: 4.23 µM
  TGI: > 100 µM
[37]
  GI50: 4.59 µM
  TGI: > 100 µM
[38]
  GI50: 2.28 µM
  TGI: 8.49 µM
[39]
  GI50: 2.54 µM
  TGI: 7.41 µM
[40]
  GI50: 4.59 µM
  TGI: > 100 µM
[41]
  GI50: 3.72 µM
  TGI: 66.8 µM
[42]
  GI50: 2.72 µM
  TGI: 8.59 µM
[43]
  GI50: 4.38 µM
  TGI: 25.9 µM
[44]
  GI50: 7.78 µM
  TGI: > 100 µM
[45]
  GI50: 3.36 µM
  TGI: 11.1 µM
[46]
  GI50: 4 µM
  TGI: > 100 µM
[47]
  GI50: 5.04 µM
  TGI: 32.9 µM
[48]
  GI50: 5.05 µM
  TGI: > 100 µM
[49]
  GI50: 1.67 µM
  TGI: 8.2 µM
[50]
  GI50: 2.82 µM
  TGI: 16 µM
[51]
  GI50: 3.87 µM
  TGI: > 100 µM
[52]
  GI50: 3.04 µM
  TGI: 31.9 µM
[53]
  GI50: 5.89 µM
  TGI: > 100 µM
[54]
  GI50: 4.25 µM
  TGI: > 100 µM
[55]
  GI50: 5.8 µM
  TGI: 69.6 µM
[56]
  GI50: 2.65 µM
  TGI: 10.2 µM
[57]
  GI50: 2.68 µM
  TGI: 14.9 µM
